Several values for one entry are separate records, joined by “and”; a condition that tells them apart may be missing. Equal values may be shown once. *: point of attachment. 5FAM = O=C1OC2(c3ccc(O)cc3Oc3cc(O)ccc32)c2ccc(C(=O)*)cc21; TQ2 = quencher
Test system: MMP14 in the HT1080 culture supernatants and the culture medium samples
Experiment: Digital detection of MMP14 active component in HT1080 culture supernatants, culture media and recovered liquids in wells
Type: biochemical, Human
Details: for original concentration in the culture supernatant / amount of the extracellular vesicles in the fraction (0.7 mL): Example 59, qEV; for original concentration in the culture supernatant: recovered from 3 mL of the culture supernatant; for amount of the extracellular vesicles in the fraction (0.7 mL): 4 h
Experimental: In addition, for detection of MMP14 activity, 1 mM Custom #1 was diluted with the buffer (4) to prepare a MMP14 detection solution containing 5 μM Custom #1 and 2 μM Alexa Fluor 647.

[1] = Experiment condition (I): FBS, HT1080 culture Present, only centrifugation, Reaction 4 hr
[2] = Experiment condition (I): FBS, HT1080 culture Present, only centrifugation, Reaction 24 hr
[3] = Experiment condition (II): FBS, HT1080 culture Present, centrifugation + filtration, Reaction 4 hr
[4] = Experiment condition (II): FBS, HT1080 culture Present, centrifugation + filtration, Reaction 24 hr
[5] = Experiment condition (III): FBS culture medium, HT1080 culture Absent, Reaction 4 hr
[6] = Experiment condition (III): FBS culture medium, HT1080 culture Absent, Reaction 24 hr
[7] = Experiment condition (IV): Exo-FBS, HT1080 culture Present, only centrifugation, Reaction 4 hr
[8] = Experiment condition (IV): Exo-FBS, HT1080 culture Present, only centrifugation, Reaction 24 hr
[9] = Experiment condition (IX): MEM culture medium, HT1080 culture Absent, Reaction 4 hr
[10] = Experiment condition (IX): MEM culture medium, HT1080 culture Absent, Reaction 24 hr
[11] = Experiment condition (V): Exo-FBS, HT1080 culture Present, centrifugation + filtration, Reaction 4 hr
[12] = Experiment condition (V): Exo-FBS, HT1080 culture Present, centrifugation + filtration, Reaction 24 hr
[13] = Experiment condition (VI): Exo-FBS culture medium, HT1080 culture Absent, Reaction 4 hr
[14] = Experiment condition (VI): Exo-FBS culture medium, HT1080 culture Absent, Reaction 24 hr
[15] = Experiment condition (VII): MEM, HT1080 culture Present, only centrifugation, Reaction 4 hr
[16] = Experiment condition (VII): MEM, HT1080 culture Present, only centrifugation, Reaction 24 hr
[17] = Experiment condition (VIII): MEM, HT1080 culture Present, centrifugation + filtration, Reaction 4 hr
[18] = Experiment condition (VIII): MEM, HT1080 culture Present, centrifugation + filtration, Reaction 24 hr
[19] = HT1080 culture supernatant recovered with exoEasy, Exo-FBS, Reaction 4 hr
[20] = HT1080 culture supernatant recovered with exoEasy, Exo-FBS, Reaction 24 hr
[21] = HT1080 culture supernatant recovered with exoEasy, MEM, Reaction 4 hr
[22] = HT1080 culture supernatant recovered with exoEasy, MEM, Reaction 24 hr
[23] = qEV recovered liquid, Exo-FBS, Fraction # 8, 4 hours of reaction

[5-FAM]GRIGFLRTAK(TQ2)[OH] (5FAM-GRIGFLRTAK(TQ2)-OH) [Custom #1]
original concentration in the culture supernatant (Exo-FBS): 9.3259e+09 mL⁻¹
amount of the extracellular vesicles in the fraction (0.7 mL) (Fraction #7 of the MEM): 1.114×10^10
amount of the extracellular vesicles in the fraction (0.7 mL) (Fraction #8 of the Exo-FBS): 0.8283×10^10
amount of the extracellular vesicles in the fraction (0.7 mL) (Fraction #8 of the MEM): 0.5245×10^10
amount of the extracellular vesicles in the fraction (0.7 mL) (Fraction #9 of the Exo-FBS): 1.969×10^10
original concentration in the culture supernatant (MEM): 5.4612e+09 mL⁻¹
Expected value λ [1]: 0.9029
Number of positives [1]: 16,696
Positive ratio [1]: 0.5946
Expected value λ [2]: 0.9382
Number of positives [2]: 17,091
Positive ratio [2]: 0.6087
Expected value λ [3]: 0.7605
Number of positives [3]: 14,954
Positive ratio [3]: 0.5325
Expected value λ [4]: 0.7723 and 0.7722
Number of positives [4]: 15,051
Positive ratio [4]: 0.538
Expected value λ [5]: 0.6588
Number of positives [5]: 13,549
Positive ratio [5]: 0.4825
Expected value λ [6]: 0.686
Number of positives [6]: 13,900
Positive ratio [6]: 0.4964
Expected value λ [7]: 0.5033
Number of positives [7]: 11,105
Positive ratio [7]: 0.3955
Expected value λ [8]: 0.4954
Number of positives [8]: 10,939
Positive ratio [8]: 0.3906
Expected value λ [9]: 0.00011
Number of positives [9]: 3
Positive ratio [9]: 0.00011
Expected value λ [10]: 0.00014
Number of positives [10]: 4
Positive ratio [10]: 0.00014
Expected value λ [11]: 0.5687
Number of positives [11]: 12,180
Positive ratio [11]: 0.4338
Expected value λ [12]: 0.5771
Number of positives [12]: 12,313
Positive ratio [12]: 0.4385
Expected value λ [13]: 0.6217
Number of positives [13]: 12,998
Positive ratio [13]: 0.4629
Expected value λ [14]: 0.6019
Number of positives [14]: 12,698
Positive ratio [14]: 0.4522
Expected value λ [15]: 0.00335
Number of positives [15]: 94
Positive ratio [15]: 0.00335
Expected value λ [16]: 0.01005
Number of positives [16]: 280
Positive ratio [16]: 0.01005
Expected value λ [17]: 0.00514
Number of positives [17]: 144
Positive ratio [17]: 0.00513
Expected value λ [18]: 0.01107
Number of positives [18]: 309
Positive ratio [18]: 0.01107
Expected value λ [19]: 0.3476
Number of positives [19]: 8,245
Positive ratio [19]: 0.2936
Expected value λ [20]: 0.5132
Number of positives [20]: 11,272
Positive ratio [20]: 0.4014
Expected value λ [21]: 0.00471
Number of positives [21]: 132
Positive ratio [21]: 0.0047
Expected value λ [22]: 0.01107
Number of positives [22]: 308
Positive ratio [22]: 0.01101
Expected value λ [23]: 0.2958
Number of positives [23]: 7,164
Positive ratio [23]: 0.2561
Expected value λ (qEV recovered liquid, Exo-FBS, Fraction # 9, 4 hours of reaction): 0.7034
